A short description of series [1]: risk score from prevalence in routine forensic samples and intoxication cases (G1, PSS, TSS). Also noted: species or system human. The source says:
Therefore, higher values indicate substances with a higher risk. […] To take into account the severity of symptoms and the contribution of the specific NPS, two further summands were introduced. The first is based on the PSS, the second on the TSS. Again, higher values were associated with more severe symptoms and a stronger role of the NPS in causing the symptoms.
The risk score is composed of three components (parts G1, G2 and G3) and was designed as follows: (1) Gx=G1x+G2x+G3x,
Equation 2 takes into consideration several components: the number of intoxications with SCRA x in quarter k over the total number of intoxications of all investigated SCRAs in the same quarter; the number of serum/blood samples positive for SCRA x over the total number of serum/blood samples positive for all SCRAs plus the number of urine samples positive for SCRA x over the total number of urine samples positive for all SCRAs (this is divided by two to account for the two different sample types); and the number of quarters in which the SCRA x was prevalent. (2) G1x=∑k=1gak/bk/ck/dk+ek/fk/2/h+i
Consequently, equation 2 was mathematically rearranged. To further simplify the equation and reduce the formula signs, in equation 3 the following simplifications were taken: a/b=ai , c/d=as and e/f=au .
The sum of these quotients was divided by the number of all prevalent quarters (q p ). Prevalent quarters were defined as quarters in which on average the substance was detected in more than 5% of the positive serum and urine samples. If a poisoning occurred in a quarter in which the substance was not prevalent, the number of these quarters was added (q i ). This part of the score has similarities with an OR [42]. If the proportion of routine samples in a given quarter in which an intoxication with the respective substance occurred was zero (a s + a u = 0), a value of 0.01 was used for that quarter in the calculation of the quotient to avoid division by zero.
(§1) For part G2, the severity of the intoxication caused by the respective SCRA x was assessed on the basis of reported symptoms and follow‐up information using the PSS [20]. The PSS classifies the intoxication severity into five levels: (0) no, (1) mild, (2) moderate, (3) severe, and (4) fatal intoxication. […] For this purpose, the mean value of the PSS of all intoxications with the respective SCRA x was calculated ( G2x) .
(§2) For part G3, the involvement of the SCRA in the respective intoxications was assessed. This was evaluated on the basis of the TSS [21]. Elliott et al. developed the TSS to assess and classify the contribution of NPS in fatalities. In the present study, the TSS was determined to weigh the involvement of the investigated SCRA in the intoxication and the contribution of the SCRA to the observed symptoms. To determine the TSS value, factors such as the determined concentration of the SCRA, the presence of other recreational drugs or medicinal drugs, the general health of the patient and the consumption circumstances need to be considered. […] In cases with more than one drug detected, a TSS of 3 was only assigned where other compounds were present at concentrations below the range in which relevant effects are to be expected.
For the risk score, the mean value of the TSS of all intoxications with substance x was calculated ( G3x) . Analogous to the value of G2x , the value of G3x can theoretically be between 1 and 3. With a value of ‘1’, substance x was not mainly responsible for the symptoms in all of the intoxications (low level of significance), and with a value of ‘3’, it was the main cause in every poisoning in which it was detected.

Series [2] can be described thus: LC–MS/MS analysis of serum and urine samples of intoxication cases. The format is in vivo, human. The conditions noted are these: for Concentration in serum: patient serum; for Finding in urine: patient urine. The method, then:
The data on intoxication cases used for the development of this risk score were obtained from a prospective study. This study included patients who were treated in an emergency department room following the consumption of an NPS. Clinical symptoms and follow‐up information were documented using a structured questionnaire completed by the attending physicians. The methodology has been previously published. Residual serum (obtained from venous blood) and urine samples, accompanied by the completed questionnaires, were sent to the Poisons Information Center Freiburg for further analysis. The toxicological analyses of serum and urine samples were conducted at the Institute of Forensic Medicine Freiburg. No data was available on previous consumption patterns or potential development of tolerance after continued misuse. The study was conducted in accordance with the Declaration of Helsinki and approved by the regional ethics committee of the University of Freiburg (no. 235/13_130683). The intoxication cases included in this study are those in which SCRA use was confirmed by liquid chromatography tandem mass spectrometry (LC–MS/MS).
Serum/blood and urine analyses were conducted at the Institute of Forensic Medicine Freiburg using previously published LC–MS/MS methods, that were modified by adding further analytes present in ‘legal‐high’ products (‘herbal blends’, ‘C‐liquids’ or ‘research chemicals’), and covered approximately 100 different SCRAs. Detailed information can be found in the Supporting Information.
Urine samples were analysed according to previously published and validated method by Franz et al.^2. For sample preparation 0.5 mL of phosphate buffer (pH 6) and 30 μL of β-glucuronidase were added to 0.5 mL of urine. Incubation was for 60 min at 45°C. This was followed by protein precipitation using 1.5 mL acetonitrile containing the internal standard (c = 2 ng/mL) and 0.56 mL 10 M ammonium formate solution, followed by shaking and centrifugation. 1 mL of the organic phase was transferred into an autosampler vial and evaporated to dryness under N2. The samples were reconstituted in 200 μL mobile phase.
Urine sample analysis was performed on a Dionex UltiMate® 3000RS UHPLC (Thermo Scientific, Dreieich, Germany) coupled to an API 5000^TM triple quadrupole instrument with a TurboIonSpray® interface (Sciex, Darmstadt, Germany). Separation was performed on a Luna C18 100 Å (150 x 2 mm, 5 μm) column with the mobile phase consisting of 0.2% HCOOH and 2 mmol/L NH^4+HCOO^− in water (A) and acetonitrile (B).

A short description of series [3]: clinical symptoms, PSS and TSS assessment of individual intoxication cases. The format is in vivo, human. The arrangement: key to PSS: 0: no; 1: mild; 2: moderate; 3: severe; 4: fatal intoxication. The method, then: Forty‐eight cases were included in the present study.
The PSS was determined based on the described symptoms.
as §1, §2

For the next series, the target named is hCB1 receptor (Homo sapiens, UniProt P21554). The conditions noted are these: ref Wouters et al. [29], cited from earlier work.

Marks after values point to notes of the source that are not given here.

Usually EC50 stands for the concentration giving half of the maximal effect.

Sequence of hCB1 receptor (P21554 whole entry): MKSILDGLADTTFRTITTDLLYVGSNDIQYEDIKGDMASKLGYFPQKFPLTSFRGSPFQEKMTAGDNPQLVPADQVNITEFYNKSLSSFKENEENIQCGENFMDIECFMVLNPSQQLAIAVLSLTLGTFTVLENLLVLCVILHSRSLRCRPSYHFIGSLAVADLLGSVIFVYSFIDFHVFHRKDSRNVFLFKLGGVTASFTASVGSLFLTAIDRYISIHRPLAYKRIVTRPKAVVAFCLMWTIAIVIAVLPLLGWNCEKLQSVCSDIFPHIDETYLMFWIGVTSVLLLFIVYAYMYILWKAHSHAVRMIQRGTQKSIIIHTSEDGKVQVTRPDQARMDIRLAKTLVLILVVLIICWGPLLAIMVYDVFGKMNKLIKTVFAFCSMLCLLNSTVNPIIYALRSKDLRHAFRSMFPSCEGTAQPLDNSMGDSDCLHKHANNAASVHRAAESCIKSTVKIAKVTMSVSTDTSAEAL

Turning to `CC(C)C(NC(=O)c1nn(CC2CCCCC2)c2ccccc12)C(N)=O` (stereo not shown), the “G total (risk score)” value in series [1] (G1+G2+G3, higher value = greater toxicological risk) was determined as 7.2. In series [1] (mean Poison Severity Score (PSS) of all intoxications with the SCRA), this compound returned a G2 of 2.1. Further, the G3 in series [1] (mean Toxicological Significance Score (TSS) of all intoxications with the SCRA) worked out at 2.3. For the same compound, the G1 in series [1] (proportion in intoxication cases relative to prevalence in routine serum/blood and urine samples per quarter, 2013–2021, >1 over‐represented in intoxications) is 2.8. In addition, the Concentration in serum in series [2] (intoxication case A (AB‐CHMINACA)) was 9.5 ng/mL; in series [2] (intoxication case B (AB‐CHMINACA)) it was 27 ng/mL; in series [2] (intoxication case B (AB‐CHMINACA), listed as AB-CHMINACA), “ca. 27 ng/mL”. Also, the Finding in urine result in series [2] (intoxication case A) and in series [2] (intoxication case B) was “positive” in each case. Besides, the results for the PSS in series [3] (intoxication case A) and in series [3] (intoxication case B) were 3 and 2, respectively. For the same compound, the Recorded symptoms result was “severe bradycardia (35 bpm/minutes)” in series [3] (intoxication case A, 3‐MMC also present); “bradycardia (35 bpm/min), seizure, hypokalaemia” in series [3] (intoxication case A, 3‐MMC also present, listed as AB-CHMINACA); “disorientation and miosis” in series [3] (intoxication case B, four other SCRAs at very low concentrations). The EC50 on hCB1 receptor (read-out: βarr2 assay EC50 [nM] (95% CI)) is 3.45 nM. For the same compound, the “βarr2 assay Emax [%] (95% CI)” value on hCB1 receptor (relative to CP‐55940, originally normalised to JWH‐018, corrected with factor 0.3268) was 1195 ^a (1097–1331) %.

The values are drawn from paper PMC12980303, “Development of a novel risk score reflecting the relative harm potential of synthetic cannabinoids based on prevalence estimates, well‐documented intoxication cases and basic pharmacological data” (Addiction (Abingdon, England), 2025).
